Test [1] concerns Paca2 human pancreatic cancer cells. The experiment in a line: Colony formation, Paca2 cells, single drugs and combinations. It is filed as cell-based. On the procedure: (§1) Paca2 human pancreatic cancer cells, A549 human lung cancer cells, and HepG2 human liver cancer cells (American Type Culture Collection) were cultured in Dulbecco's modified Eagle's medium containing 10% fetal bovine serum, 100 units/mL penicillin, 100 μg/mL streptomycin, and 2 mM L-glutamine. […] Erlotinib was from American Custom Chemicals (San Diego, Calif.). Gemcitabine was from Eli Lilly (Indianapolis, Ind.) in an aqueous 20 mM stock solution. Sorafenib was Mass.). Unless otherwise noted all compounds were solubilized in DMSO at 10 mM and aliquoted at −20° C. Exponentially growing Paca2 pancreatic cancer cells were seeded at 1,000 cells per well in 6-well plates and allowed to attach for 24 hours. Increasing concentrations of individual drugs and those in combination were then added to the media for another 24 hours. After 24 hours exposure, the drug was removed and fresh media was added for the next 10-14 days, allowing for colony formation. Cells were fixed and stained with GIEMSA (Gibco BRL). […] Results are an average of duplicate experiments. Alternatively, MTT assays were performed 72 hours post-treatment in A549 and HepG2 cells.

Test [2] relates to A549 human lung cancer cells. In words: 72 hour MTT, A549 cells, single drugs and combinations. It is filed as cell-based. As to conditions: for inhibition at 2.5 µM: read-out: X (% Inhibition). On the procedure: (§2) Cell Viability Determination: For 3-(4,5 dimethylthiazol-2-yl)-2,5-diphenyltetrazolium (MTT) (Sigma-Aldrich, St. Louis, Mo.) analysis, cells were plated in 96 well plates at 10,000 cells per well. 24 hours after plating, compound was added to cells at indicated doses. […] following compound addition, MTT was added to each well (0.5 mg/ml, final concentration) and plates were incubated for an additional 2 hours at 37° C. Medium was then aspirated and the formazan product was solubilized in 100 μl of isopropyl alcohol. The absorbance of each well was measured at 570 nm using a microplate reader.
as §1

For test [3], the system named is Stat3. In words: Stat3-luciferase (Stat3-Luc) reporter assay, OSM-stimulated HeLa cells. It counts as cell-based. The settings on record: for IC50: Homo sapiens, HeLa cells, compound 30 minutes before 25 ng/ml oncostatin M, read 6 hours later, read-out: IC50 in Stat3-Luc assays. Here is the method:
Luciferase Reporter Assay: HeLa Cells were co-transfected with Stat3-luciferase (Stat3-Luc) reporter vector (Panomics, Fremont, Calif.) and Renilla luciferase (Promega, Madison, Wis.) using Lipofectamine 2000 as described by the manufacturer (Invitrogen). Following transfection, cells were maintained in medium containing 0.5% FBS for 24 hours. Cells were then treated with the indicated compound for 30 minutes prior to the addition of 25 ng/ml oncostatin M (OSM) (R&D Systems, Minneapolis, Minn.) to the medium. 6 hours following OSM addition, cells were harvested and levels of firefly and renilla luciferase were measured using the Dual-Glo Luciferase Assay System as described by the manufacturer (Promega).
Inhibition of Stat3 transcription activity. Compounds were tested for their ability to inhibit Stat3 transcription activation activity in cells using a Stat3-luciferase (Stat3-luc) reporter construct. Cells transfected with Stat3-luc were cultured in reduced serum medium prior to addition of indicated compound for 30 minutes. Cells were then stimulated with 25 ng/ml oncostatin M (OSM) for 6 hours followed by detection of Stat3-luc reporter activity. […] AG490, a known inhibitor of the Jak-Stat pathway, was included as a positive control for Stat3 inhibition.

The subject of test [4] is Stat3. In words: Stat3 DNA binding assay (EMSA), HeLa nuclear extract. It counts as biochemical. As to conditions: HeLa nuclear extract with constitutively activated Stat3. On the procedure:
STAT3 DNA Binding Assay: Electrophoretic mobility shift assay (EMSA) was performed as described by the manufacturer (Li-Cor Biosciences, Lincoln, Nebr.). Briefly, nuclear extracts were made from HeLa cells using the NucBuster Protein Extraction Kit as described by the manufacturer (EMD Biosciences, San Diego, Calif.). 5 μg of nuclear extract was pre-incubated with the indicated dose of indicated compound for 30 minutes prior to a 15-minute incubation with the IR700-labeled consensus Stat3 oligonucleotide. Samples were then electrophoresed on a polyacrylamide gel and directly scanned using the Odyssey infrared imaging system (Li-Cor Biosciences). For the enzyme-linked immunosorbent assay (ELISA), 5 μg of nuclear extract was preincubated with indicated concentration of indicated compound for 30 minutes prior to the addition of biotinylated oligo (5′-Biotin-[…]-3′ SEQ ID NO. 1). Stat3-DNA complexes were then captured on streptavidin coated 96 well plates (Pierce, Rockford, Ill.). Bound complexes were then incubated with Stat3 polyclonal antibody (Santa Cruz Biotechnology, Santa Cruz, Calif.) followed by anti-rabbit HRP conjugated secondary antibody (GE Healthcare, Pittsburgh, Pa.). Bound antibody was then visualized by addition of TMB substrate (Pierce) and absorbance measured at 450 nm.
Inhibition of Stat3 DNA-binding activity. Nuclear extracts from HeLa cells, which contain constitutively activated Stat3 as detected by phosphorylation at the tyrosine 705 residue, were used to perform Stat3 EMSAs to monitor Stat3 DNA binding activity. Nuclear extracts were incubated with indicated compound prior to incubation with IR700-labeled Stat3 consensus oligonucleotide. Binding of Stat3 to the oligonucleotide was monitored by gel electrophoresis and detection using a LiCor Odyssey infrared scanner.

Test [5] relates to CD44high CSCs (FaDu). The experiment in a line: Sphere assay (CSC spherogenesis). It is filed as cell-based, human. As to conditions: applied at approximately ten times their IC50 concentrations for cell death. Here is the method: CD44^high cells were isolated by FACS according to the methods described in Ponti et al, with slight modification. Briefly, after trypsinization and recovery of cells for 30 minutes at 37° C. in growth media, cells were pelleted at 400×g and were resuspended in PBS with 2% FBS and 1 mM EDTA at 1×10^6 cells/mL. Cells were then incubated on ice with a 1:100 dilution of CD44-FITC (BD Biosicences, San Diego, Calif.) for 15 minutes. Alternatively, CD24-PE (BD Bioscences, San Diego, Calif.) (1:100) was utilized for negative selection. After washing three times, cells were resuspended at 2×10^6/mL and passed through a […] mesh before sorting
Sphere assay: A reliable method of measuring the self-renewal capacity of cell population if the ability to be cultured as spheres in the absence of serum or attachment. CD44^high FaDu or Hoechst side population cancer stem cells were cultured in ultra low attachment plates in cancer stem cell media (DMEM/F12, B27 Neurobasal supplement, 20 ng/ml EGF, 10 ng/ml FGF, 4 μg/ml insulin, and 0.4% BSA) to allow spheres formation. Typically, sphere formation was evaluated by microscopy after 10-14 days in culture and spheres with >50 cells were scored.
Identification of compounds that inhibit CSC spherogenesis in vitro. One of the hallmarks of cancer stem cells is their ability to self-renew. A reliable method of measuring the self-renewal capacity of cell populations is the ability to be cultured as spheres in the absence of serum or attachment. To compare the ability of compound 401 to other targeted and chemotherapeutic agents, FACS-isolated CD44^high CSCs were grown as spheres for 72 hours before being challenged with a panel of therapeutic agents. […] Tarceva, Sutent, and Gleevec were added at approximately three times their reported therapeutic concentrations.

In test [6] the test system is HepG2 human liver cancer cells. In words: 72 hour MTT, HepG2 cells, single drugs and combinations. It is filed as cell-based. Here is the method: as §2, §1
Where [7] appears, read: 72 hour MTT A549 cells, X alone 2.5 μM.

Structures are written as SMILES. Where two headings read alike, the source gives them in different places.

In the case of `N.N.O=C([O-])C1(C(=O)[O-])CCC1.[Pt+2]` [Carboplatin], the “X (% Inhibition)” value in test [1] (X alone 16 μM) is recorded as 43%. Usually inhibition stands for how much of the control response was suppressed. As for `CCN(CC)CCNC(=O)c1c(C)[nH]c(/C=C2\C(=O)Nc3ccc(F)cc32)c1C` [Sunitinib], the inhibition at 2.5 µM in test [2] (setting [7]) amounted to 75%. In test [1] (Homo sapiens, PaCa-2, X alone 12 μM), the inhibition at 12 µM came out at 52%. For `C#Cc1cccc(Nc2ncnc3cc(OCCOC)c(OCCOC)cc23)c1` [Erlotinib], in test [2] (A549, 72 h), the inhibition at 2.5 µM was found to be 43%. In addition, in test [1] (Homo sapiens, PaCa-2, X alone 16 μM), the inhibition at 16 µM was determined as 26%. `O=C(c1ccccc1)c1cc2cc3ccccc3cc2s1` [Compound 1001, reference compound]: the “Inhibition of OSM-stimulated Stat3 reporter activity (in words)” value in test [3] (at a much higher concentration (FIG. 4, right panel)) is given as “did not inhibit”. As a reminder, the IC50 is the concentration needed to halve the response being measured. Consider `CC(=O)c1cc2c(o1)C(=O)c1cc(F)ccc1C2=O` [Compound 418, 2-Acetyl-7-Fluoro-naphtho[2,3-b]furan-4,9-dione], for which, in test [3], the IC50 was around 750 nM. Besides, the “Inhibition of Stat3 DNA-binding activity (in words)” value in test [4] is “can inhibit”. For `CC(=O)c1cc2c(o1)C(=O)c1cc(Cl)ccc1C2=O` [Compound 416, 2-Acetyl-7-Chloro-naphtho[2,3-b]furan-4,9-dione] the same measures were around 750 nM and “can inhibit”. For the compound `COc1cc([C@@H]2c3cc4c(cc3[C@@H](O[C@@H]3O[C@@H]5CO[C@@H](C)O[C@H]5[C@H](O)[C@H]3O)[C@H]3COC(=O)[C@H]23)OCO4)cc(OC)c1O` [Etoposide], the inhibition at 0.66 µM in test [1] (Homo sapiens, PaCa-2, X alone 660 nM) is 58%. For `CS(=O)(=O)CCNCc1ccc(-c2ccc3ncnc(Nc4ccc(OCc5cccc(F)c5)c(Cl)c4)c3c2)o1` [Lapatinib], the inhibition at 2.5 µM in test [2] (setting [7]) came to 66%. Moreover, the inhibition at 6.75 µM in test [1] (Homo sapiens, PaCa-2, X alone 6.75 μM) turned out to be 27%. As to `CC(=O)O[C@@]12CO[C@@H]1C[C@H](O)[C@@]1(C)C(=O)[C@H](O)C3=C(C)[C@@H](OC(=O)[C@H](O)[C@@H](NC(=O)OC(C)(C)C)c4ccccc4)C[C@@](O)([C@@H](OC(=O)c4ccccc4)[C@H]21)C3(C)C` [Docetaxel, reference compound], in test [5], the “Effect on CSC sphere proliferation” value is given as “resistant”. Besides, the inhibition at 0.00033 µM in test [1] (Homo sapiens, PaCa-2, X alone 0.33 nM) worked out at 48%.

For the compound `CC(O)c1cc2c(o1)C(=O)c1ccccc1C2=O` (stereo not shown) [Compound 301, 2-(1-hydroxyethyl)-naphtho[2,3-b]furan-4,9-dione], the IC50 in test [3] is around 2000 nM. `Nc1ccn([C@@H]2O[C@H](CO)[C@@H](O)C2(F)F)c(=O)n1` [Gemcitabine]: in test [1] (Homo sapiens, PaCa-2, X alone 33 nM), the inhibition at 0.033 µM amounted to 36%. For `COc1cccc2c1C(=O)c1c(O)c3c(c(O)c1C2=O)C[C@@](O)(C(=O)CO)C[C@@H]3O[C@H]1C[C@H](N)[C@H](O)[C@H](C)O1` [Doxorubicin], the “Effect on CSC sphere proliferation” value in test [5] is “resistant”. Moreover, the inhibition at 0.0125 µM in test [2] (72 hour MTT A549 cells, X alone 12.5 nM) stood at 29%; in test [6] (X alone 12.5 nM), 23%. In addition, the inhibition at 0.016 µM in test [1] (Homo sapiens, PaCa-2, X alone 16 nM) was 89%. On to `CNC(=O)c1cc(Oc2ccc(NC(=O)Nc3ccc(Cl)c(C(F)(F)F)c3)cc2)ccn1` [Sorafenib], for which the inhibition at 2.5 µM amounted to 40% in test [2] (setting [7]) and 51% in test [6] (X alone 2.5 μM). For the same compound, the inhibition at 2 µM in test [1] (Homo sapiens, PaCa-2, X alone 2 μM) was found to be 66%. Further, the inhibition at 0.625 µM in test [6] (X alone 625 nM) stood at 34%.

The values above are taken from patent US10377731B2, “Compositions and methods for cancer treatment” (Boston Biomedical, Inc., priority 2007, dated 2019).
